{"source": "patent US12545673B2", "about": "“Imidazopyridine derivative and pharmaceutical composition comprising same as active ingredient” (TSD LIFE SCIENCES CO., LTD., priority 2019, dated 2026)", "key": {"[1]": {"test_system": "chronic myeloid leukemia cell line K562", "assay": "Cancer cell proliferation inhibitory activity evaluation 1 (CCK-8), K562", "format": "cell-based", "details": "Homo sapiens, K562, 72 h, read-out: Cancer cell proliferation inhibitory activity K562"}, "α-SMA": {"test_system": "α-SMA", "assay": "Fibrosis inhibition evaluation 1, palmitic acid-induced HepG2, real-time PCR, α-SMA", "format": "cell-based, human", "details": "palmitic acid-induced HepG2 (Table 6)"}, "in vitro": {"assay": "in vitro", "details": "dog"}, "MLK1": {"molecular_target": "MLK1 (Homo sapiens (Human), UniProt P80192)", "sequence (P80192 whole entry, looked up)": "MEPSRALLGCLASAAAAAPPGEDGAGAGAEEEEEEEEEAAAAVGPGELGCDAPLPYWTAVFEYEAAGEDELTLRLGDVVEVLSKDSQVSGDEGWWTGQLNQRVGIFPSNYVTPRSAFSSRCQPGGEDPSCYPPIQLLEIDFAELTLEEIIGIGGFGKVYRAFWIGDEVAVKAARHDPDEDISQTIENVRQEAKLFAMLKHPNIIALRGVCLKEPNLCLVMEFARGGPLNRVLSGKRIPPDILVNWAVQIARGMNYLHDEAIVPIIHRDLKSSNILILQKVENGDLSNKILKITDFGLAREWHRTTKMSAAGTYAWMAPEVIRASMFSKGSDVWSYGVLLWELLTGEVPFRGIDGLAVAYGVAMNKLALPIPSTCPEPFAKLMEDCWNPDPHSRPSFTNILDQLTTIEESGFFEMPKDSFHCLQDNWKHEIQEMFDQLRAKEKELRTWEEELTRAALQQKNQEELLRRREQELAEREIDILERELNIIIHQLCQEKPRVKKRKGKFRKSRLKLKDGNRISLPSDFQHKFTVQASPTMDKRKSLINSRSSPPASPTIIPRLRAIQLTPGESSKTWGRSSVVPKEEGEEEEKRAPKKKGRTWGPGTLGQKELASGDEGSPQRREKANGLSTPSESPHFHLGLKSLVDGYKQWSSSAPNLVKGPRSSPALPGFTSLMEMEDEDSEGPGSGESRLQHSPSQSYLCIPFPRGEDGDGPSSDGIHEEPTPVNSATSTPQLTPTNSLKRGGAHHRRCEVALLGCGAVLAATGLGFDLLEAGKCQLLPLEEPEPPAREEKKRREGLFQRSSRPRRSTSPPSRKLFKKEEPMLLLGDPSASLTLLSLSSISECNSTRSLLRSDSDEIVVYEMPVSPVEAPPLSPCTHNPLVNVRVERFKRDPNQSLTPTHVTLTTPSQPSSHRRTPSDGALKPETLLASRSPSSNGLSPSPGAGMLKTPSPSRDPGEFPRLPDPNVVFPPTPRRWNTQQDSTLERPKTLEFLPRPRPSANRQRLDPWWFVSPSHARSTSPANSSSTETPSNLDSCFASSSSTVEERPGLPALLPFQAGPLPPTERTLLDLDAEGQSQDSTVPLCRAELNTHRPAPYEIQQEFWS", "assay": "Evaluation of inhibitory activity of enzyme units, MLK1 ([γ-33P]-ATP filter assay)", "format": "biochemical"}, "[2]": {"test_system": "human breast cancer cell line MDA-MB-231", "assay": "Cancer cell proliferation inhibitory activity evaluation 1 (CCK-8), MDA-MB-231", "format": "cell-based", "details": "MDA-MB-231, 72 h, read-out: Cancer cell proliferation inhibitory activity MDAMB231"}, "Col6A3": {"test_system": "Col6A3", "assay": "Fibrosis inhibition evaluation 1, palmitic acid-induced HepG2, real-time PCR, Col6A3", "format": "cell-based, human"}, "[3]": {"test_system": "gastric cancer cell line AGS", "assay": "Cancer cell proliferation inhibitory activity evaluation 2 (CCK-8), AGS", "format": "cell-based", "details": "Homo sapiens, 72 h, read-out: Cancer cell proliferation inhibitory activity AGS"}, "[4]": {"test_system": "acute myeloid leukemia cell line U937", "assay": "Cancer cell proliferation inhibitory activity evaluation 2 (CCK-8), U937", "format": "cell-based", "details": "Homo sapiens, U-937, 72 h, read-out: Cancer cell proliferation inhibitory activity U937"}, "[5]": {"test_system": "acute lymphoblastic leukemia cell line Jurkat", "assay": "Cancer cell proliferation inhibitory activity evaluation 2 (CCK-8), Jurkat", "format": "cell-based", "details": "Homo sapiens, 72 h, read-out: Cancer cell proliferation inhibitory activity Jurkat"}, "LRRK2 wild-type": {"molecular_target": "LRRK2 wild-type (Homo sapiens (Human), UniProt Q5S007)", "sequence (Q5S007 whole entry, looked up)": "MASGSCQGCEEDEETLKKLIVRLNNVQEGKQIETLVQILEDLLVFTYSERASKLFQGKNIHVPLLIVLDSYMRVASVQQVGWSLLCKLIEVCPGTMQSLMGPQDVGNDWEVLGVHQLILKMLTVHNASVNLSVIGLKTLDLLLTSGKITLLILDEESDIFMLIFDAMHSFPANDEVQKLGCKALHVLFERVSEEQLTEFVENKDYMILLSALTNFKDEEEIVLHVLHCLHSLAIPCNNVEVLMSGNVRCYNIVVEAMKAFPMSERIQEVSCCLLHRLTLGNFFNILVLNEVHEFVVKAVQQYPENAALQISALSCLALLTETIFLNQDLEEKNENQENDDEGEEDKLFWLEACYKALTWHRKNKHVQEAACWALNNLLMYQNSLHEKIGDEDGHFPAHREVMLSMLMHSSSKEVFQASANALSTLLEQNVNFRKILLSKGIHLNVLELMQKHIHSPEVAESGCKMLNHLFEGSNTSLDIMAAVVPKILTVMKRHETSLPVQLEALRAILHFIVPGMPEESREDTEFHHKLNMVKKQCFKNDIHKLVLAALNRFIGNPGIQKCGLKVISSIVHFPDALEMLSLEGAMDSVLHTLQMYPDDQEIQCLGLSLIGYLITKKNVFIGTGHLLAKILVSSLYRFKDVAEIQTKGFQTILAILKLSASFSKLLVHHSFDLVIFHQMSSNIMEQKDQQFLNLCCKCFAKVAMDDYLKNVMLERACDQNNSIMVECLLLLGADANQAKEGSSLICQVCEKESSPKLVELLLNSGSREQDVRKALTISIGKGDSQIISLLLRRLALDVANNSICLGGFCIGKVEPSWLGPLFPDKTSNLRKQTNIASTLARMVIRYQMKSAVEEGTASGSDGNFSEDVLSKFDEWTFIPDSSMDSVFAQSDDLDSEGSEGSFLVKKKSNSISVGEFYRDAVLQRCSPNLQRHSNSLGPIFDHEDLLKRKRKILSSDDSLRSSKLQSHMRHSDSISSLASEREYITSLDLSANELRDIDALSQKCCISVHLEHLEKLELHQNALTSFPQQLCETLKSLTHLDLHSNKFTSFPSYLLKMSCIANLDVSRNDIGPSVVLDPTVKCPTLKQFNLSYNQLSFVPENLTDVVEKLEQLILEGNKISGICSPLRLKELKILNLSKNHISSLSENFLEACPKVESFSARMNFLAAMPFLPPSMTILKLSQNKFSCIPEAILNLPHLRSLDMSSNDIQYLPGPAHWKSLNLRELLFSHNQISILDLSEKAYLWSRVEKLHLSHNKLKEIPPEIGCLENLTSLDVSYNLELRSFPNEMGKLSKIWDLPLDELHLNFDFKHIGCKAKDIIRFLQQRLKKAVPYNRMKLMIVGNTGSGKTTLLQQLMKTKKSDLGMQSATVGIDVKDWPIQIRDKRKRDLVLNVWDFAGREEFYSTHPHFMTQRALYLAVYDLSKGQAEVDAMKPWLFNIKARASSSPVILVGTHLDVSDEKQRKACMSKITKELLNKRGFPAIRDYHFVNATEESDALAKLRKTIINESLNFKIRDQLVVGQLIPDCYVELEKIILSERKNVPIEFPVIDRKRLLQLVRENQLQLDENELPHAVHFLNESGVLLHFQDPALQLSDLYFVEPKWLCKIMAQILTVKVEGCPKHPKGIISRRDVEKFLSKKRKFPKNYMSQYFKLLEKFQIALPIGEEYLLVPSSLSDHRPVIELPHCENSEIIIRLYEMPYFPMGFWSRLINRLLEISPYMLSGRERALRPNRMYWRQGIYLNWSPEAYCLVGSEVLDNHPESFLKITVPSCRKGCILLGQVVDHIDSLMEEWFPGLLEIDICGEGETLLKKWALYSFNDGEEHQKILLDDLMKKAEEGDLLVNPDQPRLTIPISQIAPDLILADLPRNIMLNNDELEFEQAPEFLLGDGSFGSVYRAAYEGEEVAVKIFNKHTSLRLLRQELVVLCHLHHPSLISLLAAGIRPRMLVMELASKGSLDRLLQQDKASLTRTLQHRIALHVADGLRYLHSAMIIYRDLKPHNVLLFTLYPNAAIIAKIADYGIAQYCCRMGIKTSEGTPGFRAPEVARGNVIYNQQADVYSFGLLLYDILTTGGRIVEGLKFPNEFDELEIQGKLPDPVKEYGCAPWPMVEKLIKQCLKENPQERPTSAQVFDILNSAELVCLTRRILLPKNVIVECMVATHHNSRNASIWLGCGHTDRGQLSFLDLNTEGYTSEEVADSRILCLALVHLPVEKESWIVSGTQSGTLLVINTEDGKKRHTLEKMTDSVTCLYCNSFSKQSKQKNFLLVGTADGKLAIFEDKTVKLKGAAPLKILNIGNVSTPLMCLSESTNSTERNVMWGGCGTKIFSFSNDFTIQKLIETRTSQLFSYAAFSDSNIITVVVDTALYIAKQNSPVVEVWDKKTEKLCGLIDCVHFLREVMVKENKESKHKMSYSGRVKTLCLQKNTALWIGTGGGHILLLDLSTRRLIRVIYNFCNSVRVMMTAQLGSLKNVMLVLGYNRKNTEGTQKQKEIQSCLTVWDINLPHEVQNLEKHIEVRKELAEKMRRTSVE", "assay": "Evaluation of inhibitory activity against LRRK2 (affinity bead competition binding), wild-type", "details": "read-out: Residual active values (%) LRRK2", "summary_of_the_method": "(§1)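 Competition binding against immobilized biotinylated ligand for DNA-tagged wild-type or G2019S LRRK2, produced from T7 phage-infected E. coli (MOI 0.4, 32° C.) lysate then HEK293 cells. Beads blocked and washed in SeaBlock buffer (1% BSA, 0.05% Tween 20, 1 mM DTT); compounds prepared as 40× stocks in 100% DMSO.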"}, "MLK3": {"molecular_target": "MLK3 (Homo sapiens (Human), UniProt Q16584)", "sequence (Q16584 whole entry, looked up)": "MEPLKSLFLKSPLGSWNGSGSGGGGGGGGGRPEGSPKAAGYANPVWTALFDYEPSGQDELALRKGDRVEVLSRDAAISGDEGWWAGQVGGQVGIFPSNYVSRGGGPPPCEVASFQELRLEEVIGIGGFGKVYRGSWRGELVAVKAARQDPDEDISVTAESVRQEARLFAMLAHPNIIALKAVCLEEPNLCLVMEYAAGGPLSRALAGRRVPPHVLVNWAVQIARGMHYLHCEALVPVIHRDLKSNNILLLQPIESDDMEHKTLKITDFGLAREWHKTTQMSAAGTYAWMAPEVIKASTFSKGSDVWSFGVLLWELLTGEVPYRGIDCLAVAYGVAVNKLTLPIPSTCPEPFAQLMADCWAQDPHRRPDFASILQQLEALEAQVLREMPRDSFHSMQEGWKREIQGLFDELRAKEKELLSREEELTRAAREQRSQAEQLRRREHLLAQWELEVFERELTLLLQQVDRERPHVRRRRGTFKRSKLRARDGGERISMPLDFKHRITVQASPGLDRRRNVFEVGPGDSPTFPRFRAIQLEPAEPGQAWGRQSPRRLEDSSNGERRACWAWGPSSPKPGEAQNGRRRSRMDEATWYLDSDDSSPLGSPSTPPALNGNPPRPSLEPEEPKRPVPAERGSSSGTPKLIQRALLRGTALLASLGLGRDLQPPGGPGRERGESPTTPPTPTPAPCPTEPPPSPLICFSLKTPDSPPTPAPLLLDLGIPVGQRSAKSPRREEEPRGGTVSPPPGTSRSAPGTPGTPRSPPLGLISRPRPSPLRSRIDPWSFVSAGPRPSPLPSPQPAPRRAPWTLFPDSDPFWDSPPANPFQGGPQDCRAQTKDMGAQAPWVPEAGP", "assay": "Evaluation of inhibitory activity of enzyme units, MLK3 ([γ-33P]-ATP filter assay)", "details": "read-out: IC50(nM) MLK3"}, "[6]": {"test_system": "colorectal cancer cell line HT-29", "assay": "Cancer cell proliferation inhibitory activity evaluation 1 (CCK-8), HT-29", "format": "cell-based", "details": "Homo sapiens, HT-29, 72 h, read-out: Cancer cell proliferation inhibitory activity HT29"}, "[7]": {"test_system": "acute myeloid leukemia cell line U937", "assay": "Cancer cell proliferation inhibitory activity evaluation 1 (CCK-8), U937", "format": "cell-based", "details": "Homo sapiens, U-937, 72 h, read-out: Cancer cell proliferation inhibitory activity U937"}, "influenza virus PR8": {"test_system": "influenza virus PR8", "assay": "microbe, parasite or virus in culture", "format": "cell-based", "details": "unidentified influenza virus, PR8, MDCK, read-out: Antiviral activity (EC50, μM) PR8"}, "LRRK2 mutant (G2019S)": {"molecular_target": "LRRK2 mutant (G2019S) (Homo sapiens (Human), UniProt Q5S007, G2019S)", "sequence (Q5S007 whole entry G2019S, looked up)": "as the sequence (Q5S007 whole entry, looked up) above, with G2019S counted along it", "assay": "Evaluation of inhibitory activity against LRRK2 (affinity bead competition binding), G2019S mutant", "details": "read-out: Residual active values (%) LRRK2(G2019S)", "summary_of_the_method": "as §1"}, "influenza virus LE": {"test_system": "influenza virus LE", "assay": "microbe, parasite or virus in culture", "format": "cell-based", "details": "unidentified influenza virus, MDCK, read-out: Antiviral activity (EC50, μM) LE"}, "Col1A1": {"test_system": "Col1A1", "assay": "Fibrosis inhibition evaluation 1, palmitic acid-induced HepG2, real-time PCR, Col1A1", "format": "cell-based, human"}, "influenza virus HK": {"test_system": "influenza virus HK", "assay": "microbe, parasite or virus in culture", "format": "cell-based"}}}
{"molecule": "CCS(=O)(=O)N1CC[C@H](Nc2c(Br)cnc3[nH]c(-c4cc(C)n(-c5cc(NS(C)(=O)=O)ccc5C)c4C)nc23)C1", "note": "[Example 7, N-(3-(3-(6-bromo-7-(((S)-1-(ethylsulfonyl)pyrrolidine-3-yl)amino)-3H-imidazo[4,5-b]pyridine-2-yl)-2,5-dimethyl-1H-pyrrol-1-yl)-4-methylphenyl) methanesulfonamide]", "values": [{"measurement": "inhibition at 10 µM", "setting": "[1]", "result": "> 50", "unit": "%"}, {"measurement": "Relative degree of expression inhibition (%) α-SMA", "setting": "α-SMA", "result": 73.1, "unit": "%"}, {"measurement": "CC50 at 3 days", "setting": "in vitro", "result": "> 100", "unit": "µM"}, {"measurement": "IC50", "setting": "MLK1", "result": 44, "unit": "nM"}, {"measurement": "inhibition at 10 µM", "setting": "[2]", "result": "10 to 50", "unit": "%"}, {"measurement": "Relative degree of expression inhibition (%) Col6A3", "setting": "Col6A3", "result": 116.2, "unit": "%"}, {"measurement": "inhibition at 10 µM", "setting": "[3]", "result": "> 50", "unit": "%"}, {"measurement": "inhibition at 10 µM", "setting": "[4]", "result": "> 50", "unit": "%"}, {"measurement": "inhibition at 10 µM", "setting": "[5]", "result": "> 50", "unit": "%"}, {"measurement": "remaining binding at 0.1 µM", "setting": "LRRK2 wild-type; 100 nM", "result": 2.9, "unit": "%"}, {"measurement": "remaining binding at 0.5 µM", "setting": "LRRK2 wild-type; 500 nM", "result": 0.4, "unit": "%"}, {"measurement": "IC50", "setting": "MLK3", "result": 6, "unit": "nM"}, {"measurement": "inhibition at 10 µM", "setting": "[6]", "result": "10 to 50", "unit": "%"}, {"measurement": "inhibition at 10 µM", "setting": "[7]", "result": "> 50", "unit": "%"}, {"measurement": "EC50", "setting": "influenza virus PR8", "result": 31.9, "unit": "µM"}, {"measurement": "remaining binding at 0.1 µM", "setting": "LRRK2 mutant (G2019S); 100 nM", "result": 2.3, "unit": "%"}, {"measurement": "remaining binding at 0.5 µM", "setting": "LRRK2 mutant (G2019S); 500 nM", "result": 1.5, "unit": "%"}, {"measurement": "EC50", "setting": "influenza virus LE", "result": "> 100", "unit": "µM"}, {"measurement": "Relative degree of expression inhibition (%) Col1A1", "setting": "Col1A1", "result": 200.2, "unit": "%"}, {"measurement": "Selectivity index: CC50/EC50 HK", "setting": "influenza virus HK", "result": ">2.5"}, {"measurement": "EC50", "setting": "influenza virus HK; unidentified influenza virus, MDCK, read-out: Antiviral activity (EC50, μM) HK", "result": 40, "unit": "µM"}]}
